Measurements published in patent US20230114728A1 (Venatorx Pharmaceuticals, Inc., priority 2019, published 2023).
In brackets after ≈: the same amount, converted by molar mass.

Assays:
Assay in all cases: Broth microdilution MIC in iron-depleted CAMHB (IDM)
Type in all cases: cell-based
[1] = tested on: A. baumannii CDC-0045 producing TEM-1D, OXA-23, and OXA-69; details: Acinetobacter baumannii, read-out: Minimum Inhibitory Concentration, CDC-0045
[2] = tested on: A. baumannii CDC-0036 OXA-65, and OXA-24; details: Acinetobacter baumannii, read-out: Minimum Inhibitory Concentration, CDC-0036
In short: (§1)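 CLSI broth microdilution in iron-depleted CAMHB (Chelex 100-treated, Ca, Mg and 10 μM Zn re-added, pH 7.3). Inoculum was 2-8×10^5 CFU/mL from 3-5 h IDM cultures. Plates were incubated at 37° C for 20-24 h (Acinetobacter) or 16-20 h (Pseudomonas), and MIC was read visually as the lowest concentration without growth.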

[3] = tested on: A. baumannii CDC-0033 producing NDM-1, and OXA-94; details: Acinetobacter baumannii, read-out: Minimum Inhibitory Concentration, CDC-0033
In short: as §1

A. baumannii ATCC 19606 = details: Acinetobacter baumannii, ATCC19606, read-out: Minimum Inhibitory Concentration, ATCC 19606
In short: as §1

P. aeruginosa CDC-0110 = details: Pseudomonas aeruginosa, CDC0110, read-out: Minimum Inhibitory Concentration, P. aeruginosa CDC-0110
In short: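 MIC is the lowest well showing no visible growth after 16-20 h at 37 °C, starting from 2-8×10^5 CFU/mL in 2-fold serial compound dilutions. Medium: cation-adjusted Mueller Hinton broth iron-depleted with Chelex 100, supplemented back with Ca, Mg and Zn, pH 7.3; CLSI protocol.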

| SMILES | MIC [1] [µg/mL] | MIC [2] [µg/mL] | MIC [3] [µg/mL] | MIC (A. baumannii ATCC 19606) [µg/mL] | MIC (P. aeruginosa CDC-0110) [µg/mL] |
| --- | --- | --- | --- | --- | --- |
| CCN1CCN(C(=O)NC(C(=O)N[C@H]2Cc3ccc(F)c(C(=O)O)c3OB2O)c2c(F)cc(O)c(O)c2F)C(=O)C1=O (stereo partly drawn) [Example 36, (3R)-3-(2-(2,6-difluoro-3,4-dihydroxyphenyl)-2-(4-ethyl-2,3-dioxopiperazine-1-carboxamido)acetamido)-7-fluoro-2-hydroxy-3,4-dihydro-2H-benzo[e][1,2]oxaborinine-8-carboxylic acid] | 0.25 (≈ 0.421 µM) | 0.5 to 1 (≈ 0.841 to 1.68 µM) | 0.5 to 1 (≈ 0.841 to 1.68 µM) | 0.25 (≈ 0.421 µM) | 0.5 to 1 (≈ 0.841 to 1.68 µM) |
| CS(=O)(=O)N1CCN(C(=O)N[C@@H](C(=O)N[C@H]2Cc3ccc(F)c(C(=O)O)c3OB2O)c2c(F)cc(O)c(O)c2Cl)C1=O (single isomer, unassigned) [Example 35] | 0.25 (≈ 0.395 µM) | 0.5 to 1 (≈ 0.79 to 1.58 µM) | 0.5 to 1 (≈ 0.79 to 1.58 µM) | 0.25 (≈ 0.395 µM) | 0.5 to 1 (≈ 0.79 to 1.58 µM) |
| O=C(O)c1ccc(C(NC(=O)c2ccc(O)c(O)c2Cl)C(=O)N[C@H]2Cc3cccc(C(=O)O)c3OB2O)cc1F (stereo partly drawn) [Example 7, (3R)-3-(2-(4-carboxy-3-fluorophenyl)-2-(2-chloro-3,4-dihydroxybenzamido)acetamido)-2-hydroxy-3,4-dihydro-2H-benzo[e][1,2]oxaborinine-8-carboxylic acid] | 32 to 64 (≈ 55.9 to 112 µM) | 32 to 64 (≈ 55.9 to 112 µM) | 32 to 64 (≈ 55.9 to 112 µM) | 32 to 64 (≈ 55.9 to 112 µM) | 2 to 4 (≈ 3.49 to 6.98 µM) |
